These results are taken from US7351722B2, “Use of Mangafodipir for treating oxidative stress effects” (Universite Rene Descartes (Paris V), priority 2001, dated 2008).

For this assay the following is noted: spectrophotometry at 340 nm for 5 minutes. The protocol: The glutathione reductase activity was assayed using the kit: “Glutathione reductase assay kit” marketed by the company Calbiochem. The reaction mixture is analyzed by spectrophotometry at 340 nm for 5 minutes.

Turning to “Manganese dipyridoxyl phosphate [Mangafodipir]”, the glutathione reductase activity is on record as 19.9±1.75 mU glutathione reductase per milligram of Mangafodipir.
